Patent US9265754B2, “Use of 1-{4-[1-(4-cyclohexyl-3-trifluoromethyl-benzyloxyimino)-ethyl]-2-ethyl-benzyl}-azetidine-3-carboxylic acid in treating symptoms associated with rett syndrome” (Novartis AG, priority 2007, dated 2016)

Key:
[1] = tested on: patients with relapsing MS; conditions: cited from earlier work
[2] = tested on: BDNF; assay: In vivo S1P receptor modulator induced BDNF production (Western blot of cortex); parameters: species or system rat; conditions: female DA rats
Description: Shown on the y-axis is the relative intensity of BDNF signal of animals treated with FTY720 vs control animals that had received vehicle (i.e., ratio of signal from FTY720-treated rats divided by signal from vehicle-treated rats, n=3 rats/group). On the x axis, the first two bars come from the frontal cortex, the second two from the parietal cortex and in each case the white bar represents the vehicle treated animals and the black bar represents the FTY720 treated animals.
N=3 animals each were treated with either vehicle, 0.1 mg/kg/d FTY720, 0.3 mg/kg/d FTY720 or 1 mg/kg/d FTY720.
Female DA rats were treated for 9 days (5 days, 2 day pause, 4 days) with FTY720 p.o.
Expt 1: 0.3 mg/kg/d vs. vehicle.
One day after the last treatment, the rats were perfused with ice-cold PBS and different CNS regions were isolated.
Female DA rats were treated for 9 days (5 days, 2 day pause, 4 days) with FTY720 p.o. 0.1; 0.3 or 1 mg/kg/d vs vehicle

[3] = tested on: patients with relapsing MS; assay: Phase II trial in relapsing MS: depressive symptoms by Beck Depression Inventory second edition (BDI-II); assay type: in vivo, human; conditions: for BDI-II score, change from baseline during core study: 6 months core study
Protocol: In this study, depressive symptoms were assessed by means of the Beck Depression Inventory second edition (BDI-II).
Patients with relapsing MS (relapsing-remitting or secondary progressive) were randomized to receive placebo or FTY720 1.25 or 5 mg/day, for 6 months (the core study). At the end of this period, placebo-treated patients were re-randomized to one of the two FTY720 doses, while those originally randomized to FTY720 continued treatment at the same doses. After approximately 18-24 months, patients receiving FTY720 5 mg, were switched to 1.25 mg in view of evidence that the higher dose conferred no efficacy benefit over the lower dose.
The BDI-II was administered at baseline, and at 3 and 6 months during the core study and at 12 and 24 months during the extension phase (i.e. 6 and 18 months after the start of the extension phase). This is a 21-item self-report scale measuring various symptoms and attitudes associated with depression. Respondents rate depressive symptoms experienced during the past two weeks on a 4-point scale, coded 0 to 3 by increasing order of severity. A total score across all 21 items can be generated, with lower total scores indicating lower overall severity of depressive symptoms. BDI-II total scores of 14 or above are indicative of clinical depression. Ny reduction in the BDI-II score indicated an improvement in depression.
Of the 281 patients originally randomized to treatment, 255 completed the core study. BDI-II scores at baseline and 6 months were available in 239 patients.

[4] = 281 patients with relapsing MS, 6 months, 1.25 and 5 mg once daily

In the case of CCCCCCCCc1ccc(CCC(N)(CO)CO)cc1 [FTY720, 2-amino-2-[2-(4-octylphenyl)ethyl]propane-1,3-diol], the “reduction of annualized relapse rate compared with placebo” value [1, 4] is given as “more than 50%”, the “reduction of gadolinium-enhanced MRI lesions compared with placebo” value [1, 4] is given as “up to 80%” and the “low disease activity on MRI and relapses during dose-blinded extension phase” value ([1]; patients treated for up to 24 months) is given as “sustained”. For the same compound, the “BDNF in the cortex (relative intensity of BDNF signal vs vehicle)” value ([2]; 9-day treatment, 0.3 mg/kg/d p.o., frontal and parietal cortex, FIG. 1) was “induction of BDNF”, the “BDNF in the cortex, multiple doses” value ([2]; 9-day treatment, 0.1, 0.3 or 1 mg/kg/d p.o., FIGS. 2A-2B) was “induction of BDNF” and the “BDI-II score, change from baseline during core study” value ([3]; 1.25 mg/day) was “decreased from baseline”. The “change in BDI-II scores from baseline vs placebo-treated patients” value ([3]; 1.25 mg/day, at 6 months) was “significantly greater”, the “BDI-II score, change from baseline during core study” value ([3]; 5.0 mg/day) was “remained consistent” and the “difference in changes in BDI-II scores between the two doses” value ([3]; 1.25 vs 5.0 mg/day, 5% level) was “not significant”.
